In patent publication US7063857B1, “Use of macrolide compounds for the treatment of dry eye” (Sucampo AG, priority 1999, dated 2006):

How the values were obtained:
[1] = system: person having subjective symptoms of dry eye; assay: Instillation of FK506 eye drop in a person with subjective symptoms of dry eye; assay type: in vivo, human; settings: 0.06% eye drop (suspension), twice a day for two weeks, one patient
From the text: Using FK506 as the active ingredient in the present invention, a 0.06% eye drop (suspension) having the following formulation was used as a test drug. A suspension having the following formulation was produced in the same manner as in EP-A-0406791 (Example 6). [table]

healthy subjects = assay: Tear film breakup time (BUT) after instillation in healthy subjects; assay type: in vivo, human; settings: instilled four times a day for 7 days, healthy subjects (6 per group), right eye, difference between before and 8 days after instillation
Description: A suspension having the same formulation as in Example 1 was produced using FK506 as the active ingredient to give a 0.01% FK506 eye drop (suspension) and 0.1% FK506 eye drop (suspension) as test drugs. The base for the eye drops was used as the control drug. The above-mentioned test drugs and the control drug were instilled four times a day for 7 days to 18 healthy subjects (6 per group) at 8:00, 11:00, 14:00 and 17:00. The tear film breakup time (sec) of the right eye was measured before instillation and 8 days after instillation. The difference between before and after the instillation was calculated, and taken as the mean variation of the tear film breakup time. The tear film breakup time was measured according to the conventional method. After instillation of fluorescein, the tear film was formed on the surface of the eye by nictitation.

Question: With C=CC[C@@H]1/C=C(\C)C[C@H](C)C[C@H](OC)[C@H]2O[C@@](O)(C(=O)C(=O)N3CCCC[C@H]3C(=O)O[C@H](/C(C)=C/[C@@H]3CC[C@@H](O)[C@H](OC)C3)[C@H](C)[C@@H](O)CC1=O)[C@H](C)C[C@@H]2OC [FK506, 17-allyl-1,14-dihydroxy-12-[2-(4-hydroxy-3-methoxycyclohexyl)-1-methylvinyl]-23,25-dimethoxy-13,19,21,27-tetramethyl-11,28-dioxa-4-azatricyclo-[22.3 .1.0^4,9]octacos-18-ene-2,3,10,16-tetraone] as the molecule, how does the “subjective symptoms of dry eye (sense of dryness, foreign body and grittiness)” value [1] read?
Answer: Its value is “the subjective symptoms disappeared”.

Question: And the “Mean variation of tear film breakup time” value (healthy subjects; 0.01% FK506 eye drop (suspension))?
Answer: Its value is “+0.58 sec”.

Question: What about the “Mean variation of tear film breakup time” value (healthy subjects; 0.1% FK506 eye drop (suspension)) of the same molecule?
Answer: The value was “+0.75 sec”.
